The values that follow come from patent publication US20070032456A1, “Modulation of cell death” (priority 2003, published 2007).

For one series, the system named is IL-6. In words: Level of expression of IL-6 in H9C2 cells treated with PLP under H2O2 oxidative stress. The class given is cell-based, rat. Here is the method: Subcultured H9C2 cells (rat myocardium) (ATCC No. CRL-1446, from the American Type Culture Collection in Manassas, Va.) were plated into six well plates at a concentration of about 10^6 cells per well and allowed to grow overnight. The wells were then treated with concentrations of pyridoxal-5′-phosphate at concentrations of about 0, 50, 100, 250, 500, and 1000 nM in the medium. The cells were incubated for about 40 minutes.
An oxidative stressor, 1 mM H2O2 (Sigma, St. Louis, Mo.), was then added to each well. Supernantant samples were collected from the wells before addition of the 1 mM H2O2, and after 2, 4, 6, and 12 hours of exposure. The supernatant samples were stored at −20° C. until analyzed. The levels of IL-6 were then analyzed in each of the samples using test kits from Biosource Intl. (Camarillo, Calif.).

The next series concerns activated p38. In words: Level of activated p38 in cells treated with PLP. In kind it is cell-based, rat. Particulars: data not shown.
The conditions of series [1]: in water, alcohol, and ether; cited from earlier work.

As for `Cc1ncc(COP(=O)(O)O)c(C=O)c1O` [pyridoxal-5′-phosphate, 3-hydroxy-2-methyl-5-[(phosphonooxy)methyl]-4-pyridinecarboxaldehyde], the “levels of IL-6 expression” value in the series on IL-6 (H9C2 cells (rat myocardium) pretreated about 40 minutes with 100 nM or more, then 1 mM H2O2, FIG. 1) was “decreased levels of IL-6 expression”. Further, the “duration of the decrease of IL-6 levels” value in the series with IL-6 (H9C2 cells, 100 nM, after application of oxidative stress (1 mM H2O2), FIG. 2) was “at least 12 hours”. Moreover, the “level of activated p38” value with activated p38 was “did not effect the level of activated p38”. Besides, in series [1], the solubility entry is “essentially insoluble”.
